Test results taken from US10828315B2 (Madrigal Pharmaceuticals, Inc., priority 2013, dated 2020).
“And” between values parts separate entries of the source, which are not always exact repeats. Equal entries are not always repeated. Where two headings read alike, the source gives them in different places. Blank lines part the entries; values can stand above or below the compound they belong to.

Assays:
[1] = system: Hsp90 client proteins (EGFR, MET, CDC2), Hsp70, DNA damage markers; test: Pharmacodynamics in SCLC xenograft tumors; type: in vivo
[2] = system: human SCLC tumor xenografts; test: Antitumor activity in human SCLC tumor xenografts; type: in vivo, mice; conditions: SCLC xenografts; day 46
SK-OV-3 xenografts = test: Antitumor activity in SK-OV-3 ovarian cancer xenografts; type: in vivo, female Balb/c nude mice; conditions: SDC-TRAP-0063 200 mg/kg group; irinotecan alone and with ganetespib
Experimental: This model is sensitive to HSP90 inhibition.
However, once the dosing is discontinued all but 200 mg/kg of SDC-TRAP-0063 dose group maintained tumor growth inhibition for a prolonged period of time.

[3] = mouse, plasma, 1 h, 10 µM
[4] = system: HCT-116 human colorectal xenografts; test: Mouse xenograft efficacy in HCT-116 colon cancer model; conditions: mouse, in vivo
[5] = system: H2AX phosphorylation, HSP70, EGFR, MET; test: Pharmacodynamics in CRC (HCT-116) xenograft tumors; type: in vivo, mouse; conditions: for H2AX phosphorylation: 24 hr
[6] = system: HCT-116 human colorectal xenografts; conditions: female, BALB/cA nude, mouse, in vivo, iv
[7] = Tissue distribution of ganetespib in mice bearing RERF human NSCLC xenografts; conditions: ganetespib 50 mg/kg IV
Hsp90α = molecular target: T1, Hsp90α (Homo sapiens, UniProt P07900); test: Hsp90α binding assay (fluorescence polarization, FITC-labeled geldanamycin; Example 11); conditions: read-out: EC50 (Hsp90 binding assay)
T1 construct: purchased BPS Bioscience 50294
Experimental: An Hsp90^α fluorescence assay kit from BPS Bioscience (Cat #50294) containing Hsp90 recombinant enzyme, FITC-labeled geldanamycin, assay buffer and a low binding 384-well plate was used to assay Hsp90^α binding. Dithiothreitol (DTT) (Cat # D0643) and bovine serum albumin (BSA) (Cat # A2153) were obtained from Sigma-Aldrich. Fluorescence polarization was measured using a PHERAstar microplate reader (BMG LABTECH GmbH, Orienberg, Germany.)
The compounds were diluted to 1 mM in DMSO and loaded into a compound dilution plate to make 3-fold dilutions yielding a total of 8 concentrations. […] 5 mL of Hsp90^□ binding solution was prepared having a final concentration of 7 ng/[…]binding^□, 5 nM FITC-labeled geldanamycin, 2 mM DTT and 0.1 mg/mL BSA. 49 μL of binding solution was added to each microplate well, incubated at room temperature for 1 hour, then read using the PHERAstar microplate reader. The high control sample contained no compound plus Hsp90^α; the low control sample contained no compound and no Hsp90^α. […] The IC50 was calculated using GraphPad Prism 4 software.

HER2 [8] = test: HER2 degradation assay with BT-474 cell line (Example 12, FACS); type: cell-based, human
[9] = system: human breast cancer cell line BT-474; test: Cytotoxicity assay (CellTiter-Glo, 72 h), BT-474; type: cell-based; conditions: BT-474, 72 hours, read-out: Cytotoxicity (IC50, nM) BT-474
[10] = Artificial membrane permeability assay (PAMPA); conditions: same protocol, second table
[11] = system: human urinary bladder cancer cell line RT-112; test: Cytotoxicity assay (CellTiter-Glo, 72 h), RT-112; type: cell-based; conditions: RT-112, 72 hours, read-out: Cytotoxicity (IC50, nM) RT-112
[12] = system: human urinary bladder cancer cell line SW780; test: Cytotoxicity assay (CellTiter-Glo, 72 h), SW780; type: cell-based; conditions: SW780, 72 hours, read-out: Cytotoxicity (IC50, nM) SW-780
[13] = Mouse plasma stability protocol, up to 1 h (Examples 16-18)
H 3211 NSLC cells = test: IC50 of continuous and pulsed exposure (Examples 9 and 10); type: cell-based
Human H3122 NSCLC cells = test: Cell viability assay (CellTiter-Glo) in H3122 cells (Example 4); type: cell-based; conditions: NCI-H3122
Experimental: Human H3122 NSCLC cells were obtained and grown in RPMI in the presence of fetal bovine serum (10%), 2 mM L-glutamine and antibiotics (100 IU/ml penicillin and 100 μg/ml streptomycin, Sigma Aldrich.) Cells were maintained at 37° C., 5% CO2 atmosphere.
Cell viability was measured using the CellTiter-Glo® assay (Promega). In brief, cells were plated in 96-well plates in triplicate at optimal seeding density (determined empirically) and incubated at 37° C., 5% CO2 atmosphere for 24 hr prior to the addition of drug or vehicle (0.3% DMSO) to the culture medium. At the end of the assay, CellTiter-Glo was added to the wells per manufacturer's recommendation, shaken for two minutes and incubated for 10 minutes at room temperature. Luminescence (0.1 sec) was measured with a Victor II microplate reader (Perkin Elmer) and the resulting data were used to calculate cell viability, normalized to vehicle control.
Cells as described above were treated with exemplary SDC-TRAPs and their viability determined as above as well. The following table illustrates the results.

HER2 [14] = test: HER2 degradation in BT-474 cells (Example 3, Methods 1 and 2); type: cell-based, human
Procedure, shortened: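 BT-474 cells treated 24 h at 37 °C with 10-point 3-fold compound dilutions; HER2 read by in-cell immunofluorescence after paraformaldehyde fixation, signal normalized to DRAQ5 nuclear stain, EC50 from curve fit. Degradation also checked by western blot of cytosolic lysates against tubulin.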

[15] = Stability in mouse plasma, 2 h at 37° C. (Example 5); type: in vitro ADME; conditions: mouse plasma
Experimental: (§1) SDC-TRAP-0022 and SDC-TRAP-0028 were incubated in human and mouse plasma for 2 h at 37° C. and assayed for integrity at 0.25, 0.5, 1 and 2 h. The values reported below are the remaining of the parent compound at the end of the 2 h incubation period.

[16] = Stability in human plasma, 2 h at 37° C. (Example 5); type: in vitro ADME; conditions: human plasma
Experimental: as §1

[17] = SCLC xenograft tumors, 24 hrs after drug exposure

Compound: CCc1c2c(nc3ccc(OC(=O)N4CCC(N5CCCCC5)CC4)cc13)-c1cc3c(c(=O)n1C2)COC(=O)[C@]3(O)CC [irinotecan, reference compound]
- kinetics of acetyl-histone H3 induction ([1]; SCLC xenograft tumors, 24, 72 and 96 hrs): maximal induction of acetyl-histone H3 by 24 hr
- mice found dead [2]: 1/8
- antitumor activity in SK-OV-3 xenografts (FIG. 25) (SK-OV-3 xenografts): statistically significant inhibitory impact on the growth of SK-OV-3 xenografts
- % Remaining (1 h) [3]: 32.5%
- antitumor activity in HCT-116 xenografts (FIG. 23) [4]: significantly inhibited the growth of HCT-116 human colorectal xenografts
- H2AX phosphorylation ([5]; HCT-116 tumors): stimulate H2AX phosphorylation at 24 hr
- kinetics of H2AX phosphorylation ([5]; HCT-116 xenograft tumors): maximally induced at 4 hr and stable at 24 hr
- animal death during the treatment [6]: 20-30%

- plasma concentration ([7]; DRD, 24 hr): <LLOQ
- mean concentration in plasma relative to RBC ([7]; 5 min): about 10 times
Compound: CC(C)c1cc(-c2n[nH]c(=O)n2-c2ccc3c(ccn3C)c2)c(O)cc1O [ganetespib, reference compound]
- Hsp90 client proteins (EGFR, MET, CDC2) and Hsp70 expression [1, 17]: Hsp90 clients EGFR, MET and CDC2 are diminished
- markers for DNA damage (acetyl-histone H3, p53, p-H2AX) [1, 17]: increases p-H2AX but has negligible effects on p53 and histone H3
- persistence in tumor versus plasma and other tissues ([7]; up to 24 hr): persist longer in tumor than in plasma or any other tissues studied
- H2AX phosphorylation ([5]; HCT-116 tumors): induces H2AX phosphorylation
- HSP70 and Hsp90 client protein (EGFR, MET) expression ([5]; HCT-116 tumors, 24 hr exposure): induces HSP70 expression and reduces the level of EGFR and MET compared to vehicle

Compound: CCNC(=O)c1nnc(-c2cc(C(C)C)c(O)cc2O)n1-c1ccc(OC2CCN(c3cnc(C(=O)N[C@H]4C[C@H](O[C@H]5C[C@](O)(C(=O)CO)Cc6c(O)c7c(c(O)c65)C(=O)c5c(OC)cccc5C7=O)O[C@@H](C)[C@H]4O)cn3)CC2)cc1 [SDC-TRAP-0200, 5-(4-(4-(3-(2,4-dihydroxy-5-isopropylphenyl)-5-(ethylcarbamoyl)-4H-1,2,4-triazol-4-yl)phenoxy)piperidin-1-yl)-N-((2S,3S,4S,6R)-3-hydroxy-2-methyl-6-(((1S,3S)-3,5,12-trihydroxy-3-(2-hydroxyacetyl)-10-methoxy-6,11-dioxo-1,2,3,4,6,11-hexahydrotetracen-1-yl)oxy)tetrahydro-2H-pyran-4-yl)pyrazine-2-carboxamide]
- EC50 (Hsp90α): 253 nM
- IC50 (HER2 [8]; BT-474 cells, overnight): > 10000 nM
- IC50 [9]: 32 nM
- Mass Retention [10]: 10.6%
- IC50 [11]: 16 nM
- IC50 [12]: 651 nM

Compound: CCNC(=O)c1nnc(-c2cc(C(C)C)c(O)cc2O)n1-c1ccc(Oc2ccc(C(=O)N[C@H]3C[C@H](O[C@H]4C[C@](O)(C(=O)CO)Cc5c(O)c6c(c(O)c54)C(=O)c4c(OC)cccc4C6=O)O[C@@H](C)[C@H]3O)cc2)cc1 [SDC-TRAP-0199, 5-(2,4-dihydroxy-5-isopropylphenyl)-N-ethyl-4-(4-(4-(((2S,3 S,4S,6R)-3-hydroxy-2-methyl-6-(((1S,3S)-3,5,12-trihydroxy-3-(2-hydroxyacetyl)-10-methoxy-6,11-dioxo-1,2,3,4,6,11-hexahydrotetracen-1-yl)oxy)tetrahydro-2H-pyran-4-yl)carbamoyl)phenoxy)phenyl)-4H-1,2,4-triazole-3-carboxamide]
- EC50 (Hsp90α): 136 nM
- IC50 (HER2 [8]; BT-474 cells, overnight): > 10000 nM
- IC50 [9]: 29 nM
- IC50 [11]: 29 nM
- IC50 [12]: 2300 nM

Compound: CCc1c2c(nc3ccc(OC(=O)N(C)CCn4ccc5cc(-n6c(O)nnc6-c6cc(C(C)C)c(O)cc6O)ccc54)cc13)-c1cc3c(c(=O)n1C2)COC(=O)C3(O)CC (centres unmarked) [SDC-TRAP-0022, 4,11-diethyl-4-hydroxy-3,14-dioxo-3,4,12,14-tetrahydro-1H-pyrano[3′,4′:6,7]indolizino[1,2-b]quinolin-9-yl (2-(5-(3-(2,4-dihydroxy-5-isopropylphenyl)-5-hydroxy-4H-1,2,4-triazol-4-yl)-1H-indol-1-yl)ethyl)(methyl)carbamate]
- % Remaining (1 h) ([13]; % Remaining of parent after 1 h incubation in mouse plasma at 37° C. (10 μM)): 21.0%
- % Remaining (1 h, 37° C.) ([13]; mouse plasma, 1 h, 37° C.): 21%
- IC50 (H 3211 NSLC cells; 1 h, read-out: IC50, 1h-pulse/71h-compound free, 7.5 × 10^3 cells/well, two replicate columns): > 3000 nM
- IC50 (H 3211 NSLC cells; read-out: IC50, 1h-pulse/71h-compound free, 7.5 × 10^3 cells/well, two replicate columns): > 3000 nM
- IC50 (H 3211 NSLC cells; read-out: IC50, 72h-continuous, 7.5 × 10^3 cells/well, three replicate columns): 193 nM and 823 nM and 460 nM
- IC50 (HER2 [8]): > 5000 nM
- IC50 (Human H3122 NSCLC cells): 492 nM
- IC50 (HER2 [14]): > 5000 nM
- % Remaining 2 h (37° C.), MO ([15]; 1 μM): 32%
- % Remaining 2 h (37° C.), MO ([15]; 10 μM): 31%
- % Remaining 2 h (37° C.), HU ([16]; 1 μM): 29%
- % Remaining 2 h (37° C.), HU ([16]; 10 μM): 30%
